Experimental findings from patent US7053122B2, “Therapeutic use of aryl amino acid derivatives” (Pfizer Inc, priority 2002, dated 2006) are described below.

For this assay, the system named is α2δ subunit derived from porcine brain tissue. The assay can be described thus: radioligand binding assay using [3H]gabapentin and the α2δ subunit. The note with it: [3H]gabapentin radioligand. From the text:
The biological activity of the compounds of the invention may be measured in a radioligand binding assay using [^3H]gabapentin and the α2δ subunit derived from porcine brain tissue (Gee N. S., Brown J. P., Dissanayake V. U. K., Offord J., Thurlow R., Woodruff G. N., J. Biol. Chem., 1996; 271:5776–5879). Results may be expressed in terms of μM or nM α2δ binding affinity.
`Cl.NCc1ccc(Cl)cc1C(=O)O` [Example 1, 2-Aminomethyl-5-chloro-benzoic acid hydrochloride salt] came in with a α2δ binding affinity of 100 nM.

`Cl.NCc1cc(Cl)c(Cl)cc1C(=O)O` [Example 2, 2-Aminomethyl-4,5-dichloro-benzoic acid hydrochloride salt]: the α2δ binding affinity is listed as 435 nM.

`CC(N)c1ccccc1C(=O)O.Cl` (centres unmarked) [Example 5, 2-(1-Amino-ethyl)-benzoic acid hydrochlorid salt]: the α2δ binding affinity was determined as 270 nM.

Consider `Cl.NCc1cccc(Cl)c1C(=O)O` [Example 4, 2-Aminomethyl-6-chloro-benzoic acid hydrochloride salt], for which the α2δ binding affinity is recorded as 383 nM.

For the compound `Cl.NCc1ccc(Cl)cc1-c1noc(=O)[nH]1` [Example 7, 3-(2-Aminomethyl-5-chloro-phenyl)-4-H-[1,2,4]loxadiazol-5-one hydrochloride salt], the α2δ binding affinity was found to be 8000 nM.
